# Measurements as given in patent US20230365592A1 (Agios Pharmaceuticals, Inc., priority 2022, published 2023).
# Target: T1, human PAH with the R408W mutation (Homo sapiens, UniProt P00439, R408W)
# T1 construct: expressed in transfected cells
# T1 sequence (P00439 1-452 R408W): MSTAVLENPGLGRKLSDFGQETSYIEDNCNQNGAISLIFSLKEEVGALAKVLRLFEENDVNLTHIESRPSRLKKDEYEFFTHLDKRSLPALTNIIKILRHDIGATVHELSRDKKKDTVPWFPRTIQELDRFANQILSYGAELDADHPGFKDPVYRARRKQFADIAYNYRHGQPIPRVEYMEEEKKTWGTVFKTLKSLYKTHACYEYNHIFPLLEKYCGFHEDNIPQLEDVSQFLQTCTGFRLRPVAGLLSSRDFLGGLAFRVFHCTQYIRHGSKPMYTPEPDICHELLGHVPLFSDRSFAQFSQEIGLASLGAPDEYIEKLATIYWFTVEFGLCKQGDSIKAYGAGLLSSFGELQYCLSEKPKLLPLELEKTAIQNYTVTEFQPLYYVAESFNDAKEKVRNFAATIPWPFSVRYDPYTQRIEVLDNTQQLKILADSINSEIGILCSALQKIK
# Assay: Cell Based Phenylalanine Flux Assay;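 note: after compound treatment, cells received sepiapterin plus isotope-labelled Phenylalanine for 4 hours, then labelled Tyrosine in the medium was quantified, 10-point 2-fold dilution series run in duplicate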
# Settings: A375 cells expressing R408W PAH; 24 hrs with compound, then 20 µM sepiapterin and 800 µM 13C9,15N-Phenylalanine for 4 hours; 13C-Tyrosine by LC-MS; average where tested multiple times; read-out: AC50
row,AC50 [nM],Structure (SMILES)
1,1000 to 5000,Cc1n[nH]cc1-c1nnc(C(=O)N2CCc3[nH]cnc3C2c2cc3c(F)cccn3n2)o1 (centres unmarked)
2,1000 to 5000,CN(C)C(=O)c1nnc(N2CCc3[nH]cnc3C2c2cc3c(F)cccn3n2)o1 (centres unmarked)
3,> 5000,Fc1ncccc1-c1nnc(N2CCc3[nH]cnc3C2c2cc3c(C4CC4)cccn3n2)o1 (centres unmarked)
4,1000 to 5000,O=C(c1cnco1)N1CCc2[nH]cnc2C1c1cc2ccc(C(F)(F)F)cn2n1 (centres unmarked)
5,1000 to 5000,O=C(c1cnn(CC(F)(F)F)c1Cl)N1CCc2[nH]cnc2C1c1cc2ccccn2n1 (centres unmarked)
6,1000 to 5000,Cc1cccc2cc(C3c4nc[nH]c4CCN3C(=O)c3ncnn3C)nn12 (centres unmarked)
7,> 5000,c1ccn2nc(C3c4nc[nH]c4CCN3c3nnc(-c4ccncn4)o3)cc2c1 (centres unmarked)
8,1000 to 5000,Cc1ccc2c(C(=O)N3CCc4[nH]cnc4C3c3cc4cccc(Cl)n4n3)cnn2c1 (centres unmarked)
9,1000 to 5000,O=C(c1cnco1)N1CCc2[nH]cnc2C1c1cc2cccc(Cl)n2n1 (centres unmarked)
10,1000 to 5000,Cc1nnc(C(=O)N2CCc3[nH]cnc3C2c2cc3cccc(C(F)(F)F)n3n2)o1 (centres unmarked)

# Same assay, conditions: A375 cells expressing human PAH R408W; 24 hrs compound incubation; 13C-Tyrosine by LC-MS; average where tested multiple times; read-out: AC50
row,AC50 [nM],Structure (SMILES)
1,500 to 1000,"Fc1ncccc1-c1nnc(N2CCc3[nH]cnc3[C@H]2c2cc3c(Cl)cccn3n2)o1 [Example 2350, (S)-2-(4-(4-chloropyrazolo[1,5-a]pyridin-2-yl)-1,4,6,7-tetrahydro-5H-imidazo[4,5-c]pyridin-5-yl)-5-(2-fluoropyridin-3-yl)-1,3,4-oxadiazole]"
2,> 5000,"Cc1cccn2nc([C@H]3c4nc[nH]c4CCN3C(=O)c3cnc(-c4ccccn4)o3)cc12 [Example 1965, (R)-(4-(4-methylpyrazolo[1,5-a]pyridin-2-yl)-1,4,6,7-tetrahydro-5H-imidazo[4,5-c]pyridin-5-yl)(2-(pyridin-2-yl)oxazol-5-yl)methanone]"
3,> 5000,"O=C(c1ncco1)N1CCc2[nH]cnc2[C@@H]1c1cc2c(C(F)F)cccn2n1 [Example 2077, (R)-(4-(4-(difluoromethyl)pyrazolo[1,5-a]pyridin-2-yl)-1,4,6,7-tetrahydro-5H-imidazo[4,5-c]pyridin-5-yl)(oxazol-2-yl)methanone]"
4,> 5000,"Cc1cccnc1-c1nnc(N2CCc3[nH]cnc3[C@@H]2c2cc3c(C4CC4)cccn3n2)o1 [Example 2282, (R)-2-(4-(4-cyclopropylpyrazolo[1,5-a]pyridin-2-yl)-1,4,6,7-tetrahydro-5H-imidazo[4,5-c]pyridin-5-yl)-5-(3-methylpyridin-2-yl)-1,3,4-oxadiazole]"
5,1000 to 5000,"COCCc1ccc2c(C(=O)N3CCc4[nH]cnc4[C@H]3c3cc4c(C)cccn4n3)cnn2c1 [Example 2478, (S)-(6-(2-methoxyethyl)pyrazolo[1,5-a]pyridin-3-yl)(4-(4-methylpyrazolo[1,5-a]pyridin-2-yl)-6,7-dihydro-1H-imidazo[4,5-c]pyridin-5(4H)-yl)methanone]"

# Same assay, conditions: A375 cells expressing human R408W PAH; 24 hrs compound incubation; 13C-Tyrosine by LC-MS; average where tested multiple times; read-out: AC50
row,Structure (SMILES),AC50 [nM]
1,"Cn1cncc1-c1nc(C(F)F)c(C(=O)N2CCc3[nH]cnc3[C@@H]2c2cc3c(F)cccn3n2)o1 [Example 888, (R)-(4-(difluoromethyl)-2-(1-methyl-1H-imidazol-5-yl)oxazol-5-yl)(4-(4-fluoropyrazolo[1,5-a]pyridin-2-yl)-6,7-dihydro-1H-imidazo[4,5-c]pyridin-5(4H)-yl)methanone]",> 5000
2,"Cc1c(-c2nnc(C(=O)N3CCc4[nH]cnc4[C@H]3c3cc4c(F)cccn4n3)o2)cnn1C [Example 954, (S)-(5-(1,5-dimethyl-1H-pyrazol-4-yl)-1,3,4-oxadiazol-2-yl)(4-(4-fluoropyrazolo[1,5-a]pyridin-2-yl)-6,7-dihydro-1H-imidazo[4,5-c]pyridin-5(4H)-yl)methanone]",< 500
3,"Cc1cccn2nc([C@@H]3c4nc[nH]c4CCN3C(=O)c3oc(-c4cn(C)cn4)nc3C(F)F)cc12 [Example 931, (S)-(4-(difluoromethyl)-2-(1-methyl-1H-imidazol-4-yl)oxazol-5-yl)(4-(4-methylpyrazolo[1,5-a]pyridin-2-yl)-6,7-dihydro-1H-imidazo[4,5-c]pyridin-5(4H)-yl)methanone]",< 500
4,"Cc1cccn2nc([C@@H]3c4nc[nH]c4CCN3C(=O)c3nnc(C(C)(C)F)o3)cc12 [Example 922, (S)-(5-(2-fluoropropan-2-yl)-1,3,4-oxadiazol-2-yl)(4-(4-methylpyrazolo[1,5-a]pyridin-2-yl)-6,7-dihydro-1H-imidazo[4,5-c]pyridin-5(4H)-yl)methanone]",< 500
5,"O=C(c1cnco1)N1CCc2[nH]cnc2[C@H]1c1cc2c(Cl)cccn2n1 [Example 766, (S)-(4-(4-chloropyrazolo[1,5-a]pyridin-2-yl)-6,7-dihydro-1H-imidazo[4,5-c]pyridin-5(4H)-yl)(oxazol-5-yl)methanone]",< 500
6,"Cc1c(-c2nnc(C(=O)N3CCc4[nH]cnc4[C@@H]3c3cc4c(F)cccn4n3)o2)cnn1C [Example 955, (R)-(5-(1,5-dimethyl-1H-pyrazol-4-yl)-1,3,4-oxadiazol-2-yl)(4-(4-fluoropyrazolo[1,5-a]pyridin-2-yl)-6,7-dihydro-1H-imidazo[4,5-c]pyridin-5(4H)-yl)methanone]",> 5000
7,"Cc1ccc(-c2nnc(C(=O)N3CCc4[nH]cnc4[C@@H]3c3cc4c(F)cccn4n3)o2)nc1 [Example 876, (R)-(4-(4-fluoropyrazolo[1,5-a]pyridin-2-yl)-6,7-dihydro-1H-imidazo[4,5-c]pyridin-5(4H)-yl)(5-(5-methylpyridin-2-yl)-1,3,4-oxadiazol-2-yl)methanone]",> 5000
8,"Cc1cc(C(=O)N2CCc3[nH]cnc3[C@H]2c2cc3ccccn3n2)n(C)n1 [Example 892, (S)-(1,3-dimethyl-1H-pyrazol-5-yl)(4-(pyrazolo[1,5-a]pyridin-2-yl)-6,7-dihydro-1H-imidazo[4,5-c]pyridin-5(4H)-yl)methanone]",< 500
9,"O=C(c1nnc(-c2ccn(C(F)F)n2)o1)N1CCc2[nH]cnc2[C@@H]1c1cc2cccc(Cl)n2n1 [Example 965, (R)-(4-(7-chloropyrazolo[1,5-a]pyridin-2-yl)-6,7-dihydro-1H-imidazo[4,5-c]pyridin-5(4H)-yl)(5-(1-(difluoromethyl)-1H-pyrazol-3-yl)-1,3,4-oxadiazol-2-yl)methanone]",> 5000
10,"Cc1nc(C(C)(C)O)oc1C(=O)N1CCc2[nH]cnc2[C@H]1c1cc2c(Cl)cccn2n1 [Example 724, (S)-(4-(4-chloropyrazolo[1,5-a]pyridin-2-yl)-6,7-dihydro-1H-imidazo[4,5-c]pyridin-5(4H)-yl)(2-(2-hydroxypropan-2-yl)-4-methyloxazol-5-yl)methanone]",< 500

# Now from value to molecule:
row,AC50 [nM],Structure (SMILES)
1,500 to 1000,"Cc1cccn2nc([C@@H]3c4nc[nH]c4CCN3c3nnc(C4CC4)o3)cc12 [Example 1589, (S)-2-cyclopropyl-5-(4-(4-methylpyrazolo[1,5-a]pyridin-2-yl)-6,7-dihydro-1H-imidazo[4,5-c]pyridin-5(4H)-yl)-1,3,4-oxadiazole]"
2,< 500,"Cn1nc(C(F)F)nc1C(=O)N1CCc2[nH]cnc2[C@H]1c1cc2ccc(C(F)(F)F)cn2n1 [Example 1126, (S)-(3-(difluoromethyl)-1-methyl-1H-1,2,4-triazol-5-yl)(4-(6-(trifluoromethyl)pyrazolo[1,5-a]pyridin-2-yl)-6,7-dihydro-1H-imidazo[4,5-c]pyridin-5(4H)-yl)methanone]"
3,1000 to 5000,"O=C(c1nnc(-c2ccncn2)o1)N1CCc2[nH]cnc2[C@@H]1c1cc2c(F)cccn2n1 [Example 1259, (R)-(4-(4-fluoropyrazolo[1,5-a]pyridin-2-yl)-6,7-dihydro-1H-imidazo[4,5-c]pyridin-5(4H)-yl)(5-(pyrimidin-4-yl)-1,3,4-oxadiazol-2-yl)methanone]"
4,500 to 1000,"O=C(c1nnc(-c2cnccn2)o1)N1CCc2[nH]cnc2[C@H]1c1cc2cccc(F)n2n1 [Example 1461, (S)-(4-(7-fluoropyrazolo[1,5-a]pyridin-2-yl)-6,7-dihydro-1H-imidazo[4,5-c]pyridin-5(4H)-yl)(5-(pyrazin-2-yl)-1,3,4-oxadiazol-2-yl)methanone]"
5,> 5000,"COc1cccn2nc([C@H]3c4nc[nH]c4CCN3C(=O)c3nnc(-c4ccn(C(F)F)n4)o3)cc12 [Example 1722, (R)-(5-(1-(difluoromethyl)-1H-pyrazol-3-yl)-1,3,4-oxadiazol-2-yl)(4-(4-methoxypyrazolo[1,5-a]pyridin-2-yl)-6,7-dihydro-1H-imidazo[4,5-c]pyridin-5(4H)-yl)methanone]"
6,< 500,"O=C(c1nnc(-c2ncccc2F)o1)N1CCc2[nH]cnc2[C@H]1c1cc2cccc(Cl)n2n1 [Example 982, (S)-(4-(7-chloropyrazolo[1,5-a]pyridin-2-yl)-6,7-dihydro-1H-imidazo[4,5-c]pyridin-5(4H)-yl)(5-(3-fluoropyridin-2-yl)-1,3,4-oxadiazol-2-yl)methanone]"
7,1000 to 5000,"O=C(c1oc(C2(O)CC2)nc1C(F)F)N1CCc2[nH]cnc2[C@@H]1c1cc2c(C(F)(F)F)cccn2n1 [Example 1223, (R)-(4-(difluoromethyl)-2-(1-hydroxycyclopropyl)oxazol-5-yl)(4-(4-(trifluoromethyl)pyrazolo[1,5-a]pyridin-2-yl)-6,7-dihydro-1H-imidazo[4,5-c]pyridin-5(4H)-yl)methanone]"
